Measurements: paper PMC11595589, “A Pharmacokinetic and Bioavailability Study of Ecklonia cava Phlorotannins Following Intravenous and Oral Administration in Sprague–Dawley Rats” (Marine Drugs, 2024)
Like-named read-outs stand apart in the source and are kept apart here.

Tests used:
[1] = Single-dose pharmacokinetics and bioavailability after oral gavage administration of EK-ECP; format: in vivo, male Sprague–Dawley rats; settings: for Tlast / Tmax: median (minimum-maximum); for half-life / AUC(0-t): po; for half-life / AUC(0-t) / Cmax / AUC(0-inf) / MRT last / Vd/F: mean (CV); for Vd/F: read-out: Vz/F
Experimental: (§1) EK-ECP was administered to male Sprague–Dawley rats by either IV bolus (Group 1, 10 mg/kg) or oral gavage (Groups 2, 3 or 4, at 10, 100 or 1000 mg/kg, respectively) administration. Blood collection intervals were pre dose (0), and 0.25, 0.5, 1, 2, 4, 6, 8, 12, 24 and 36 h post dose. Plasma samples were analyzed for concentrations of 8,8′-bieckol, dieckol, and PFF-A; all pre-dose sample results were less than the lower limit of quantitation (LLOQ < 1 ng/mL). The time profiles of the plasma concentrations of 8,8′-bieckol, dieckol, and PFF-A in individual animals are illustrated in Figure 4. The mean pharmacokinetic parameters and corresponding coefficient of variation (CV) following IV administration of 10 mg/kg EK-ECP to male rats are illustrated in Table 1. Those following oral administrations of 10, 100 and 1000 mg/kg EK-ECP to male rats are illustrated in Table 2.
(§2) Total of 20 male CD® [Crl:CD®(SD)] rats (approximately 11.5 weeks of age) obtained from Charles River Laboratories (Portage, MI, USA) were used in our study. These included five rats with both jugular and femoral vein cannulations, and 15 rats with jugular vein cannulations. Of the 20 animals received, 16 male rats were placed in the study, comprising four rats with both jugular and femoral vein cannulations, and 12 rats with jugular vein cannulations. The rats were housed in the Mattawan facility of MPI Research Inc (currently Charles River Laboratories, Mattawan, MI, USA). Animal welfare for this study was in compliance with the U.S. Department of Agriculture’s (USDA) Animal Welfare Act (9 CFR Parts 1, 2 and 3). This facility maintained an animal welfare assurance statement with the National Institutes of Health Office of Laboratory Animal Welfare. All procedures were approved before the study by the institutional animal care utilization committee. Animals were individually housed and fed a basal diet of Lab Diet Certified Rodent Diet #5002, PMI Nutrition International, Inc. Food and water was available ad libitum except during fasting periods, when food was withheld, and during any required restraint periods, when both food and water were withheld. Animal rooms were maintained at (20 ± 2) °C and (50 ± 20)% relative humidity with a 12 h light/dark cycle throughout the study.
(§3) For intravenous administration, EK-ECP was dissolved in 70/25/5 (v/v) phosphate-buffered saline (PBS)/propylene glycol/ethanol (pH 5.1 final concentration of 2 mg/mL) and stabilized at room temperature for 24 h. For oral administration, after an amount of EK-ECP appropriate to the final targeted formulation concentrations was weighed and placed in a bottle, a small amount of the vehicle (water for injection) was added and mixed using a vortex mixer and heated to between 60 to 70 °C until homogeneously suspended. Additional amounts of the vehicle were gradually added to yield the targeted EK-ECP concentrations (1, 10, and 100 mg/mL). Dosing occurred within 4 h after preparation completion. The individual constituent doses of dieckol, 8,8′-bieckol, and PFF-A in each dosing formulation were analyzed by RP-HPLC followed by interpolation of the corresponding area% to the calibration curve prepared with known concentrations of isolated standards. The animals were fasted for a minimum of 4 h prior to dosing and through the first 4 h of blood sample collection. Each animal in Group 1 received a single intravenous (IV) dose of the 10 mg/kg EK-ECP. The intravenous doses were administered as a slow bolus injection over 5 min through the femoral vein cannula. The cannula was flushed with approximately 0.3 mL of sterile 0.9% sodium chloride for injection, USP, immediately following dosing. Each animal in Groups 2, 3 and 4 received a single oral (PO) gavage dose of the appropriate test article formulation, as outlined Table 3. Oral gavage dosing formulations were continuously stirred throughout dosing. […]

[2] = Single-dose pharmacokinetics after IV bolus administration of EK-ECP; format: in vivo, male Sprague–Dawley rats; settings: IV bolus 10 mg/kg EK-ECP; for half-life / AUC(0-t) / Vd: iv
Experimental: as §1, §2, §3

[3] = male, Sprague-Dawley, rat, plasma, PO 100 mg/kg EK-ECP
[4] = male, Sprague-Dawley, rat, plasma, PO 1000 mg/kg EK-ECP
[5] = male, Sprague-Dawley, rat, plasma, mean (CV)

Oc1cc(O)cc(Oc2c(O)cc(O)c3c2Oc2c(O)cc(Oc4c(O)cc(Oc5c(O)cc(O)c6c5Oc5c(O)cc(O)cc5O6)cc4O)cc2O3)c1 [dieckol]
plasma concentrations quantifiable up to ([1]; PO 100 mg/kg EK-ECP (Group 3)): 8 h | Tlast ([1]; PO 100 mg/kg EK-ECP): 8 (6–8) h | plasma concentrations quantifiable up to ([1]; PO 1000 mg/kg EK-ECP (Group 4), PFF-A in a single rat): 36 h | Tlast ([1]; PO 1000 mg/kg EK-ECP): 36 (36–36) h | fold increase in AUCTlast for a 1:10-fold increase in dose ([1]; PO 100 to 1000 mg/kg EK-ECP): ~49 fold | fold increase in Cmax for a 1:10-fold increase in dose ([1]; PO 100 to 1000 mg/kg EK-ECP): ~41 fold | half-life ([1]; male, Sprague-Dawley, rat, plasma, 100 mg/kg, PO 100 mg/kg EK-ECP, ln(2)·MRTlast, read-out: Effective T1/2 (converted)): 2.36 h | AUC(0-t) ([1]; male, Sprague-Dawley, rat, plasma, 100 mg/kg, PO 100 mg/kg EK-ECP, read-out: AUC(0–24h)): 27.2 ng·h/mL | AUC(0-t) ([1]; male, Sprague-Dawley, rat, plasma, 100 mg/kg, PO 100 mg/kg EK-ECP, read-out: AUCTlast): 24.3 ng·h/mL | half-life ([1]; male, Sprague-Dawley, rat, plasma, 100 mg/kg, PO 100 mg/kg EK-ECP, read-out: T1/2 (terminal half-life) (converted)): 2.76 h | half-life ([1]; male, Sprague-Dawley, rat, plasma, 1000 mg/kg, PO 1000 mg/kg EK-ECP, ln(2)·MRTlast, read-out: Effective T1/2 (converted)): 5.31 h | AUC(0-t) ([1]; male, Sprague-Dawley, rat, plasma, 1000 mg/kg, PO 1000 mg/kg EK-ECP, read-out: AUC(0–24h)): 1130 ng·h/mL | AUC(0-t) ([1]; male, Sprague-Dawley, rat, plasma, 1000 mg/kg, PO 1000 mg/kg EK-ECP, read-out: AUCTlast): 1200 ng·h/mL | half-life ([1]; male, Sprague-Dawley, rat, plasma, 1000 mg/kg, PO 1000 mg/kg EK-ECP, read-out: T1/2 (terminal half-life) (converted)): 6.61 h | bioavailability ([1]; male, Sprague-Dawley, rat, plasma, 100 and 1000 mg/kg oral dose of EK-ECP versus IV 10 mg/kg, dose-corrected, read-out: Bioavailability following oral gavage administration): 0.06 to 0.23% | Cmax ([1]; male, Sprague-Dawley, rat, plasma, PO 100 mg/kg EK-ECP (Group 3)): 6.67 ng/mL | AUC(0-inf) [1, 3]: 31.4 ng·h/mL | MRT last [1, 3]: 3.4 h | Vd/F [1, 3]: 1160 L/kg | Tmax [1, 3]: 0.5 to 4 h | Cmax ([1]; male, Sprague-Dawley, rat, plasma, PO 1000 mg/kg EK-ECP (Group 4), PFF-A N = 1): 274 ng/mL | AUC(0-inf) [1, 4]: 1230 ng·h/mL | MRT last [1, 4]: 7.67 h | Vd/F [1, 4]: 768 L/kg | Tmax [1, 4]: 0.5 h | plasma concentrations quantifiable up to [2]: 36 h | T1/2 (terminal half-life) ([2]; mean (CV), 10 mg/kg): 11.9 (7) h | Tlast ([2]; median (minimum-maximum)): 36 (36–36) h | half-life ([2]; male, Sprague-Dawley, rat, plasma, 10 mg/kg, mean (CV), ln(2)·MRTlast, read-out: Effective T1/2 (converted)): 1.48 h | AUC(0-t) ([2]; male, Sprague-Dawley, rat, plasma, 10 mg/kg, mean (CV), read-out: AUC(0–24h)): 5190 ng·h/mL | AUC(0-t) ([2]; male, Sprague-Dawley, rat, plasma, 10 mg/kg, mean (CV), read-out: AUCTlast): 5290 ng·h/mL | half-life ([2]; male, Sprague-Dawley, rat, plasma, 10 mg/kg, mean (CV), read-out: T1/2 (terminal half-life) (converted)): ~11.9 h | Vd ([2]; male, Sprague-Dawley, rat, plasma, 10 mg/kg, mean (CV), read-out: Vss): 0.57 L/kg | Vd ([2]; male, Sprague-Dawley, rat, plasma, 10 mg/kg, mean (CV), read-out: Vz): 3.35 L/kg | AUC(0-inf) [2, 5]: 5390 ng·h/mL | MRT last [2, 5]: 2.14 h | clearance ([2]; male, Sprague-Dawley, rat, plasma, read-out: Mean clearance (Cl) (converted)): 3.22 mL/min/kg | C0 [2, 5]: 8890 ng/mL
